Results as given in patent EP4714938A1, “HDAC1/2 SELECTIVE INHIBITOR AND USE THEREOF” (Wigen Biomedicine Technology (Shanghai) Co., Ltd., priority 2023, dated 2024).
Where two headings read alike, the source gives them in different places.

Assays:
HDAC2 = HDAC2 (Homo sapiens, UniProt Q92769); test: HDAC enzyme inhibitory activity, FRET method; type: biochemical
Protocol: (§2) The compounds of the present disclosure were assayed for enzyme inhibitory activity against various subtypes of HDAC enzymes by the FRET method. The various subtypes of HDAC enzymes were obtained either through purification or direct purchase of assay kits.
(§3) The specific method was as follows: The enzyme was added to a 384-well plate, and a reaction buffer was added to the control well. Serially diluted DMSO sample solutions were added to the reaction wells, and the plate was incubated at room temperature for 15 min. Then a chromogenic agent was added to stop the reaction, and fluorescence was generated. The fluorescence intensity was measured using an EnVision multi-label microplate reader (excitation: 355 nm, emission: 460 nm). The endpoint value was read after the color development reached stability. The inhibition IC50 of the compounds was calculated using GraphPad Prism4 software relative to DMSO.

HDAC4 = HDAC4 (Homo sapiens, UniProt P56524); test: HDAC enzyme inhibitory activity, FRET method; type: biochemical; settings: Table 6; read-out: IC50 HDAC subtype 4
Protocol: as §2, §3

[1] = tested on: Mouse colon cancer CT-26 cells; settings: for Tumor response, number of mice (CR/PR/SD): 6 mice per group; for TGI(%): QD for 14 consecutive days, PO
Protocol: Female BALB/c mice (aged 6 weeks, 18-22 g) were provided by Vital River Laboratory Animal Technology Co., Ltd. (China) and used one week after quarantine and acclimation. All animals were kept in a room at 23±2 °C with a relative humidity of 50±5%, artificial lighting was provided from 08:00 to 20:00 every day, and the air was exchanged 13-18 times per hour.
Mouse colon cancer CT-26 cells were cultured conventionally in 1640 medium containing 10% fetal bovine serum in an incubator at 37 °C with 5% CO2. After being subcultured, the cells were collected when they reached the desired amount. The BALB/c mice were subcutaneously injected with 2 × 10^5 CT-26 cells on the right side to form tumors. After the tumors grew to about 100 mm^3, the animals were randomly grouped for administration. Tumor volumes were measured with a caliper on day 3, day 7, day 10, day 14, day 17, and day 21 after the administration. The ability of the compounds to inhibit tumor growth was evaluated according to the tumor growth inhibition rate (TGI) = 1 - (tumor volume on day 28 in treatment group - tumor volume on day 1 in treatment group)/(tumor volume on day 28 in control group - tumor volume on day 1 in control group). The toxicity of the compounds was evaluated according to the body weight and state of the mice.

HDAC3 = HDAC3 (Homo sapiens, UniProt O15379); test: HDAC enzyme inhibitory activity, FRET method; type: biochemical
Protocol: as §2, §3

H3K 27 Acetyl lysine = test: Intracellular H3K 27 acetyl lysine level by ELISA in HeLa cells; type: cell-based; settings: 24 h of treatment
Protocol: HeLa cells were seeded into a 96-well plate at 20000 cells/well. After overnight adherence culture, the serially diluted compound was added. After 24 h of treatment, intracellular levels of acetyl lysine and H3K 27 acetyl lysine were quantified by ELISA. Table 8. Effect of compound of the present disclosure on levels of acetyl lysine and H3K 27 acetyl lysine

[2] = tested on: Mouse colon cancer MC38 cells; settings: MC-38
Protocol: Female C57BL6N mice (aged 6 weeks, 18-22 g) were provided by Vital River Laboratory Animal Technology Co., Ltd. (China) and used one week after quarantine and acclimation. All animals were kept in a room at 23±2 °C with a relative humidity of 50±5%, artificial lighting was provided from 08:00 to 20:00 every day, and the air was exchanged 13-18 times per hour.
Mouse colon cancer MC38 cells were cultured conventionally in 1640 medium containing 10% fetal bovine serum in an incubator at 37 °C with 5% CO2. After being subcultured, the cells were collected when they reached the desired amount. The C57BL6N mice were subcutaneously injected with 2 × 10^6 MC38 cells on the right side to form tumors. After the tumors grew to about 100 mm^3, the animals were randomly grouped for administration. Tumor volumes were measured with a caliper on day 3, day 7, day 10, day 14, day 17, and day 21 after the administration. The ability of the compounds to inhibit tumor growth was evaluated according to the tumor growth inhibition rate (TGI) = 1 - (tumor volume on day 28 in treatment group - tumor volume on day 1 in treatment group)/(tumor volume on day 28 in control group - tumor volume on day 1 in control group). The toxicity of the compounds was evaluated according to the body weight and state of the mice.
The groups were as follows: 1) solvent control group; 2) PD-1+Reg group; 3) Compound 1 group; 4) Reference Compound group; 5) compound 1 (10mg/kg) and PD-1+Reg Combination group; 6) compound 1 (30mg/kg) and PD-1+Reg Combination group; 7) compound 1 (90mg/kg) and PD-1+Reg Combination group; 8) Reference Compound (10mg/kg) and PD-1+Reg Combination group; 9) Reference Compound (30mg/kg) and PD-1+Reg Combination group; 10) Reference Compound (90mg/kg) and PD-1+Reg Combination group, with 6 mice per group.
Reg represents Regorafenib PD-1 represents an anti-PD-1 antibody; IV represents administration via intravenous injection; PO represents oral administration; QD represents once-daily administration; QW represents once-weekly administration; CR represents complete remission (complete disappearance of the tumor after the dosing cycle is completed); PR represents partial response (tumor volume reduction exceeding 30% relative to the initial volume upon completion of the administration cycle); SD represents stable disease (tumor volume reduction or growth not exceeding 30% relative to the initial volume upon completion of the administration cycle); Died represents mouse died before the dosing cycle is completed; Administration period* is once daily (QD) for 10 consecutive days, followed by a 16-day off-treatment period; the once-weekly (QW) regimen is administered only on Day 1 and Day 8.

Jurkat cell = test: Inhibition of cell proliferation (CTG, intracellular ATP); type: cell-based; settings: Homo sapiens, Jurkat, 72 h
Protocol: (§1) Jurkat or 293T cells were seeded into a 96-well plate at 3000 cells/well. After overnight adherence culture, the serially diluted compound in DMSO was added. After 72 h, the intracellular ATP level was determined by CTG. The IC50 for the inhibition of cell proliferation by the compounds was calculated compared to the DMSO group. Table 7. Inhibitory activity of compounds of the present disclosure against Jurkat/293T cell proliferation (IC50, µM)

293T cell = test: as above; type: cell-based; settings: Homo sapiens, HEK-293T, 72 h
Protocol: as §1

Sequence of HDAC3 (O15379 whole entry, species assumed): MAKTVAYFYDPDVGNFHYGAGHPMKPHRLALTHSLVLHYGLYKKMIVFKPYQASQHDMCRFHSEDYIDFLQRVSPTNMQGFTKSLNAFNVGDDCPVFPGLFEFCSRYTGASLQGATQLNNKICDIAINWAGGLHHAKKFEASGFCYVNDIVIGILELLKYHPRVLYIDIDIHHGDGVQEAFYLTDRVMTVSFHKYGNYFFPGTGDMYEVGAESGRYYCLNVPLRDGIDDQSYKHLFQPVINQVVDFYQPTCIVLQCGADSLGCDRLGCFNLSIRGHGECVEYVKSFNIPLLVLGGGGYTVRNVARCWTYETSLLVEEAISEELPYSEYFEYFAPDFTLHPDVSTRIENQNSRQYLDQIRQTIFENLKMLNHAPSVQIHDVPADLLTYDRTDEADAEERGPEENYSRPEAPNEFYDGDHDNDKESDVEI
Sequence of HDAC3 (Q9Y618 395-489 partner limits assumed, species assumed): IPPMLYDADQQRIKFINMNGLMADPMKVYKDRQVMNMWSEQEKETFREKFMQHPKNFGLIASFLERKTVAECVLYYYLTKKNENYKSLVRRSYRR
Sequence of HDAC2 (Q92769 whole entry, species assumed): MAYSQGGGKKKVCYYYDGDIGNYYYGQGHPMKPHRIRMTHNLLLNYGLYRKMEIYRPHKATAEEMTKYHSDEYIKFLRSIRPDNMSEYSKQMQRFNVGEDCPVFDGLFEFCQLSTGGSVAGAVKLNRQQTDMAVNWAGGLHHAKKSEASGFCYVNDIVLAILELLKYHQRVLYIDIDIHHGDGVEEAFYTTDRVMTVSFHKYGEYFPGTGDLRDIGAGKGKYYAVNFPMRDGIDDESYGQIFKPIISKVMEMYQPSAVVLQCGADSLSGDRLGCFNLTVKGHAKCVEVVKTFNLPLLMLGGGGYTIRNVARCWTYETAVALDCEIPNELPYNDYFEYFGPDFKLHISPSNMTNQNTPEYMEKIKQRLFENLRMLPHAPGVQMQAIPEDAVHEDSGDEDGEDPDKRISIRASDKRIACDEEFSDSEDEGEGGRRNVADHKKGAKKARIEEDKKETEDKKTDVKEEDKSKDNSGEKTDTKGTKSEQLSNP
Sequence of HDAC4 (P56524 whole entry, species assumed): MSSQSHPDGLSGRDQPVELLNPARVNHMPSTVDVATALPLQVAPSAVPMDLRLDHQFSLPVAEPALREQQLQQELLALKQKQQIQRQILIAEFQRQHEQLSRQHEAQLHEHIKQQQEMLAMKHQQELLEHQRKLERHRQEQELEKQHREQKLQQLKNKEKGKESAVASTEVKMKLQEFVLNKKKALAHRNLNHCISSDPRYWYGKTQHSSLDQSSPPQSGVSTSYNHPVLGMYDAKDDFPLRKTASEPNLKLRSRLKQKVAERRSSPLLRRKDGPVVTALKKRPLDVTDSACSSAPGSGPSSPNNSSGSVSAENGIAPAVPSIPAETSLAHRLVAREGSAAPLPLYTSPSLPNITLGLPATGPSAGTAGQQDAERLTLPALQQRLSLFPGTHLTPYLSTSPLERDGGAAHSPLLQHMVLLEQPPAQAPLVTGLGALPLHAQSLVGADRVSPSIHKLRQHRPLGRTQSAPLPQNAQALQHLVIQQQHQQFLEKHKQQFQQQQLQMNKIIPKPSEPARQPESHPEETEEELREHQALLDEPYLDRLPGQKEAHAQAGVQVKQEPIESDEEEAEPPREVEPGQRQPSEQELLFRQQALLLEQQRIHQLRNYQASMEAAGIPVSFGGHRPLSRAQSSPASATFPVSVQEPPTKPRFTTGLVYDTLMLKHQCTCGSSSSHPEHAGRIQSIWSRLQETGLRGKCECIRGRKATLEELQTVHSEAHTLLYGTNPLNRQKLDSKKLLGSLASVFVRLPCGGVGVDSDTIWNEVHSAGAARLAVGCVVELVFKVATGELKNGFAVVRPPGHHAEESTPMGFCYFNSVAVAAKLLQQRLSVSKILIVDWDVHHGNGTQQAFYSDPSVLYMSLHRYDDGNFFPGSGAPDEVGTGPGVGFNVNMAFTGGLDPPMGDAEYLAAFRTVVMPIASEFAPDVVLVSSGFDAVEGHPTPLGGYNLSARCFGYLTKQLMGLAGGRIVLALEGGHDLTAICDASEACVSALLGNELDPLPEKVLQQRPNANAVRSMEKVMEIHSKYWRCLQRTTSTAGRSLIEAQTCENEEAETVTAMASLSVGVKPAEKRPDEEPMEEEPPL

CS(C)(=O)=Nc1ccc(C(=O)Nc2cc(-c3ccc(F)cc3)ccc2N)cc1 [Compound 1, N-(4-Amino-4'-fluoro-[1,1'-biphenyl]-3-yl)-4-((dimethyl(oxo)-1^λ-6-sulfaneylidene)amino)benzamide]
IC50 (HDAC2; Table 4, read-out: IC50 HDAC2): < 500 nM
IC50 (HDAC2; Table 5, read-out: IC50 HDAC2): 30 to 300 nM
IC50 (HDAC2; Table 6, read-out: IC50 HDAC subtype 2): 141 nM
IC50 (HDAC4): > 30000 nM
Change in body weight(%) ([1]; monotherapy 30 mg/kg QD PO): 1.13+3.79%
Tumor response, number of mice (CR/PR/SD) ([1]; monotherapy 30 mg/kg QD PO): 1PR
TGI(%) ([1]; monotherapy 30 mg/kg): 38.57%
Change in body weight(%) ([1]; monotherapy 90 mg/kg QD PO): -10.53+7.1%
Tumor response, number of mice (CR/PR/SD) ([1]; monotherapy 90 mg/kg QD PO): 1PR+1SD
TGI(%) ([1]; monotherapy 90 mg/kg): 88.35%
IC50 (HDAC3; Table 4, read-out: IC50 HDAC3): > 5000 nM
IC50 (HDAC3; Table 5, read-out: IC50 HDAC3): > 3000 nM
IC50 (HDAC3; Table 6, read-out: IC50 HDAC subtype 3): 5510 nM
H3K 27 Acetyl lysine Maximum (%) (H3K 27 Acetyl lysine): 200%
H3K 27 Acetyl lysine Minimum effective concentration (H3K 27 Acetyl lysine): 80 nM
Change in body weight(%) ([2]; monotherapy 90 mg/kg QD PO): 11.08 ± 1.08%
Tumor response, number of mice (CR/PR/SD) ([2]; monotherapy 90 mg/kg QD PO, CR complete remission, PR partial response, SD stable disease, 6 mice per group): 5CR
TGI(%) ([2]; monotherapy 90 mg/kg, QD for 10 consecutive days, PO): 100.54%
complete tumor regression, % of mice ([2]; monotherapy group (5/6)): 83.3%
IC50 (Jurkat cell): 650 nM
IC50 (293T cell): > 10000 nM
